Each structure is given as a SMILES string. A value given as a limit tells only on which side of the number the result lay.

HPK1, sequence (Q92918 1-346): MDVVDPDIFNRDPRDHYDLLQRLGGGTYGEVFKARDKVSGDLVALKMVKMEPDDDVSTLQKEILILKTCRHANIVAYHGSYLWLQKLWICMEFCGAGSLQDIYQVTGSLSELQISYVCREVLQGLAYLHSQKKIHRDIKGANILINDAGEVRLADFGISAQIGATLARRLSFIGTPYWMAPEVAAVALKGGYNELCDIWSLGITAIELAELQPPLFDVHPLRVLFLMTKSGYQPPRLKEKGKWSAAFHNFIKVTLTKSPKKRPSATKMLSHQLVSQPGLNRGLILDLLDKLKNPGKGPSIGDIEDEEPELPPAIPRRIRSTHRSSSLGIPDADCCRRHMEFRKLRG

For this assay, the target named is HPK1 (Homo sapiens (Human), UniProt Q92918). Description: HPK1 Kinase Binding Assay. The gist of the method:
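This is a LanthaScreen tracer-binding format: a tracer 222/Eu-anti-GST antibody mix (18 nM and 4 nM solution) is added to active HPK1 (4 nM solution) with 3-fold, 11-point compound dilutions. Incubation is 1 h at 25 °C in HEPES pH 7.5 buffer before reading, and Ki is determined.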
As usually defined, the Ki is a measure of affinity in units of concentration, obtained from inhibition or displacement. The low end stands for higher affinity, the high end for lower affinity. `Cn1cc(-c2n[nH]c3cnc(-c4c(F)ccc5c4CCCC5N)cc23)cn1` (stereo not shown) [Example 210, 6-Fluoro-5-(3-(1-methyl-1H-pyrazol-4-yl)-1H-pyrazolo[3,4-c]pyridin-5-yl)-1,2,3,4-tetrahydronaphthalen-1-amine]: the Ki was no more than 100 nM. For `CN1CCN(c2ncc(-c3n[nH]c4cnc(-c5c(F)cc(CC#N)cc5F)cc34)cn2)CC1` [Example 211, 2-(3,5-Difluoro-4-(3-(2-(4-methylpiperazin-1-yl)pyrimidin-5-yl)-1H-pyrazolo[3,4-c]pyridin-5-yl)phenyl)acetonitrile] the value was no more than 100 nM; for `Cn1cc(-c2n[nH]c3cnc(-c4c(F)cc5c(c4F)C(O)CC5)cc23)cn1` (stereo not shown) [Example 212, 5,7-Difluoro-6-(3-(1-methyl-1H-pyrazol-4-yl)-1H-pyrazolo[3,4-c]pyridin-5-yl)-2,3-dihydro-1H-inden-1-ol], no more than 100 nM; for `CN1CCN(c2ccc(-c3n[nH]c4cnc(-c5c(F)cc6c(c5F)C(O)CC6)cc34)cn2)CC1` (stereo not shown) [Example 213, 5,7-Difluoro-6-(3-(6-(4-methylpiperazin-1-yl)pyridin-3-yl)-1H-pyrazolo[3,4-c]pyridin-5-yl)-2,3-dihydro-1H-inden-1-ol], no more than 100 nM.

Take `CNC1CCc2cc(F)c(-c3ncc4[nH]nc(-c5cnn(C)c5)c4c3OC)c(F)c2C1` (stereo not shown) [Example 214, 6,8-Difluoro-7-(4-methoxy-3-(1-methyl-1H-pyrazol-4-yl)-1H-pyrazolo[3,4-c]pyridin-5-yl)-N-methyl-1,2,3,4-tetrahydronaphthalen-2-amine]: the Ki is no more than 100 nM. The value for `CNCc1cc(F)c(-c2ncc3[nH]nc(-c4cnn(C)c4)c3c2OC)c(F)c1` [Example 215, 1-(3,5-Difluoro-4-(4-methoxy-3-(1-methyl-1H-pyrazol-4-yl)-1H-pyrazolo[3,4-c]pyridin-5-yl)phenyl)-N-methylmethanamine] was no more than 100 nM. Molecule `Cn1cc(-c2n[nH]c3cnc(-c4c(F)cc5c(c4F)C(N)CC5)c(F)c23)cn1` (stereo not shown) [Example 216, 5,7-Difluoro-6-(4-fluoro-3-(1-methyl-1H-pyrazol-4-yl)-1H-pyrazolo[3,4-c]pyridin-5-yl)-2,3-dihydro-1H-inden-1-amine] came in with a Ki of no more than 100 nM. For `CNCc1cc(F)c(-c2cc3c(-c4cnc(N5CCN(C)CC5)nc4)n[nH]c3cn2)c(F)c1` [Example 217, 1-(3,5-Difluoro-4-(3-(2-(4-methylpiperazin-1-yl)pyrimidin-5-yl)-1H-pyrazolo[3,4-c]pyridin-5-yl)phenyl)-N-methylmethanamine] the value was no more than 100 nM; for `CNCc1cc(F)c(-c2cc3c(-c4cnc(N5CCC(O)CC5)nc4)n[nH]c3cn2)c(F)c1` [Example 218, 1-(5-(5-(2,6-Difluoro-4-((methylamino)methyl)phenyl)-1H-pyrazolo[3,4-c]pyridin-3-yl)pyrimidin-2-yl)piperidin-4-ol], no more than 100 nM; for `CNCc1cc(F)c(-c2cc3c(-c4cncc(N5CCN(C)CC5)c4)n[nH]c3cn2)c(F)c1` [Example 219, 1-(3,5-Difluoro-4-(3-(5-(4-methylpiperazin-1-yl)pyridin-3-yl)-1H-pyrazolo[3,4-c]pyridin-5-yl)phenyl)-N-methylmethanamine], no more than 100 nM.

For the molecule `CNC1CCc2c1cc(C)c(-c1cc3c(-c4cnn(C)c4)n[nH]c3cn1)c2F` (stereo not shown) [Example 220, 4-Fluoro-N,6-dimethyl-5-(3-(1-methyl-1H-pyrazol-4-yl)-1H-pyrazolo[3,4-c]pyridin-5-yl)-2,3-dihydro-1H-inden-1-amine], the Ki is no more than 100 nM.

`Cc1c(CN2CC(C)(C)C2)ccc(F)c1-c1cc2c(-c3cnn(C)c3)n[nH]c2cn1` [Example 221, 5-(3-((3,3-Dimethylazetidin-1-yl)methyl)-6-fluoro-2-methylphenyl)-3-(1-methyl-1H-pyrazol-4-yl)-1H-pyrazolo[3,4-c]pyridine] had a Ki of no more than 100 nM.

As to `CO[C@H]1C[C@H](NCc2ccc(F)c(-c3cc4c(-c5cnn(C)c5)n[nH]c4cn3)c2C)C1` [Example 222, trans-N-(4-Fluoro-2-methyl-3-(3-(1-methyl-1H-pyrazol-4-yl)-1H-pyrazolo[3,4-c]pyridin-5-yl)benzyl)-3-methoxycyclobutanamine], the Ki was no more than 100 nM. The value for `Cc1c(CNC2CC(C)(C)C2)ccc(F)c1-c1cc2c(-c3cnn(C)c3)n[nH]c2cn1` [Example 223, N-(4-Fluoro-2-methyl-3-(3-(1-methyl-1H-pyrazol-4-yl)-1H-pyrazolo[3,4-c]pyridin-5-yl)benzyl)-3,3-dimethylcyclobutanamine] was no more than 100 nM; that for `Cc1c(CNCC2(C)CC2)ccc(F)c1-c1cc2c(-c3cnn(C)c3)n[nH]c2cn1` [Example 224, N-(4-Fluoro-2-methyl-3-(3-(1-methyl-1H-pyrazol-4-yl)-1H-pyrazolo[3,4-c]pyridin-5-yl)benzyl)-1-(1-methylcyclopropyl)methanamine] was no more than 100 nM.

The molecule `CNCc1ccc(F)c(-c2cc3c(-c4cnn(C)c4)n[nH]c3cn2)c1C(F)(F)F` [Example 225, 1-(4-Fluoro-3-(3-(1-methyl-1H-pyrazol-4-yl)-1H-pyrazolo[3,4-c]pyridin-5-yl)-2-(trifluoromethyl)phenyl)-N-methylmethanamine] yielded a Ki of no more than 100 nM. For `Cc1cc(C2COCCN2)cc(F)c1-c1cc2c(-c3cnn(C)c3)n[nH]c2cn1` (stereo not shown) [Example 234, 3-(3-Fluoro-5-methyl-4-(3-(1-methyl-1H-pyrazol-4-yl)-1H-pyrazolo[3,4-c]pyridin-5-yl)phenyl)morpholine] the value was no more than 100 nM; for `CNCc1cc(F)c(-c2cc3c(-c4cnn(C)c4)n[nH]c3cn2)c(C(F)F)c1` [Example 235, 1-(3-(Difluoromethyl)-5-fluoro-4-(3-(1-methyl-1H-pyrazol-4-yl)-1H-pyrazolo[3,4-c]pyridin-5-yl)phenyl)-N-methylmethanamine], no more than 100 nM.

`CCNCc1ccc(F)c(-c2cc3c(-c4cnn(C)c4)n[nH]c3cn2)c1C` [Example 236, N-(4-Fluoro-2-methyl-3-(3-(1-methyl-1H-pyrazol-4-yl)-1H-pyrazolo[3,4-c]pyridin-5-yl)benzyl)ethanamine]: the Ki is no more than 100 nM. As to `CCNCc1cccc(-c2cc3c(-c4cnn(C)c4)n[nH]c3cn2)c1C(F)(F)F` [Example 237, N-(3-(3-(1-Methyl-1H-pyrazol-4-yl)-1H-pyrazolo[3,4-c]pyridin-5-yl)-2-(trifluoromethyl)benzyl)ethanamine], the Ki is no more than 100 nM. For `CNC1CCCc2c1ccc(F)c2-c1cc2c(-c3ccc(N4CCN(C)CC4)nc3)n[nH]c2cn1` (stereo not shown) [Example 240, 6-Fluoro-N-methyl-5-(3-(6-(4-methylpiperazin-1-yl)pyridin-3-yl)-1H-pyrazolo[3,4-c]pyridin-5-yl)-1,2,3,4-tetrahydronaphthalen-1-amine] the value was no more than 100 nM; for `CN1CCN(c2ccc(-c3n[nH]c4cnc(-c5c(F)ccc6c5CCCC6N)cc34)cc2)CC1` (stereo not shown) [Example 241, 6-Fluoro-5-(3-(4-(4-methylpiperazin-1-yl)phenyl)-1H-pyrazolo[3,4-c]pyridin-5-yl)-1,2,3,4-tetrahydronaphthalen-1-amine], no more than 100 nM.
